Measured values published in PMC6410416 (Marine Drugs, 2019).

Target: T1, Ps-Mn-SOD (Paelopatides sp. YL-2018, UniProt A0A411L1L4)
T1 construct: ORF 255 residues, signal peptide deleted; 6xHis tag (pCold II), E. coli pG-KJE8/BL21, Ni-NTA; about 30 kDa subunit, dimer about 60 kDa; C-terminal peptide (from primer) PSKHEEL
T1 sequence (A0A411L1L4 22-255): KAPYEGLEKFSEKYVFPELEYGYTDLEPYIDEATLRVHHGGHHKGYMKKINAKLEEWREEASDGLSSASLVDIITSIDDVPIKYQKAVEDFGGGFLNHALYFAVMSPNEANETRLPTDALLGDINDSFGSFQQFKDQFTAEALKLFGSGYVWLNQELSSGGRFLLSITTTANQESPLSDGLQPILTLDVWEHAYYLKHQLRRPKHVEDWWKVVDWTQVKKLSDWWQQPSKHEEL
Experiment: SOD assay kit, inhibition of chromogen production at […] nm
Assay type: biochemical
Details: superoxide generated in situ; turnover only

[O]O [superoxide]
SOD assay kit, inhibition of chromogen production at 550 nm: SOD activity was determined via spectrophotometric method using the SOD assay kit
